{
  "source": "ChEMBL document CHEMBL5226375",
  "about": "“Synthesis and Comprehensive in Vivo Activity Profiling of Olean-12-en-28-ol, 3β-Pentacosanoate in Experimental Autoimmune Encephalomyelitis: A Natural Remyelinating and Anti-Inflammatory Agent” (J Nat Prod, 2023)",
  "key": {"[1]": {"assay": "Stability of the compound in THF/phosphate buffer at pH 2.5 incubated for 2 hrs under stirring conditions by 1H-NMR analysis", "type": "physicochemical", "settings": "pH 2.5, 2 h"}, "Mus musculus [2]": {"system": "Mus musculus", "assay": "Anti-inflammatory activity against MOG35-55-induced experimental autoimmune encephalomyelitis C57BL/6 mouse model assessed as fold change in BCL2 gene expression in brain at 600 mg/kg/day, ig for 14 days starting from 12th day of immunization by RT-qPCR analysis relative to control", "type": "functional", "settings": "time 14 day"}, "Mus musculus [3]": {"system": "Mus musculus", "assay": "Anti-inflammatory activity against MOG35-55-induced experimental autoimmune encephalomyelitis C57BL/6 mouse model assessed as fold change in GFAP gene expression in brain at 600 mg/kg/day, ig for 14 days starting from 12th day of immunization by RT-qPCR analysis relative to control", "type": "functional", "settings": "time 14 day"}, "Mus musculus [4]": {"system": "Mus musculus", "assay": "Anti-inflammatory activity against MOG35-55-induced experimental autoimmune encephalomyelitis C57BL/6 mouse model assessed as fold change in STAT3 gene expression in brain at 300 mg/kg/day, ig for 14 days starting from 12th day of immunization by RT-qPCR analysis relative to control", "type": "functional", "settings": "time 14 day"}, "Mus musculus [5]": {"system": "Mus musculus", "assay": "Anti-inflammatory activity against MOG35-55-induced experimental autoimmune encephalomyelitis C57BL/6 mouse model assessed as fold change in MAG gene expression in brain at 300 mg/kg/day, ig for 14 days starting from 12th day of immunization by RT-qPCR analysis relative to control", "type": "functional", "settings": "time 14 day"}, "Mus musculus [6]": {"system": "Mus musculus", "assay": "Anti-inflammatory activity against MOG35-55-induced experimental autoimmune encephalomyelitis C57BL/6 mouse model assessed as fold change in MBP gene expression in brain at 300 mg/kg/day, ig for 14 days starting from 12th day of immunization by RT-qPCR analysis relative to control", "type": "functional", "settings": "time 14 day"}, "Mus musculus [7]": {"system": "Mus musculus", "assay": "Anti-inflammatory activity against MOG35-55-induced experimental autoimmune encephalomyelitis C57BL/6 mouse model assessed as fold change in APP gene expression in brain at 300 mg/kg/day, ig for 14 days starting from 12th day of immunization by RT-qPCR analysis relative to control", "type": "functional", "settings": "time 14 day"}, "Mus musculus [8]": {"system": "Mus musculus", "assay": "Anti-inflammatory activity against MOG35-55-induced experimental autoimmune encephalomyelitis C57BL/6 mouse model assessed as reduction in MMP9 protein expression in brain at 300 to 600 mg/kg/day, ig for 14 days starting from 12th day of immunization by western blot analysis relative to control", "type": "functional", "settings": "dose 300-600 mg/kg/day, time 14 day"}, "Mus musculus [9]": {"system": "Mus musculus", "assay": "Anti-inflammatory activity against MOG35-55-induced experimental autoimmune encephalomyelitis C57BL/6 mouse model assessed as proportion of brain infiltrating cells expressing CD45+/CD11b/c high surface markers at 600 mg/kg/day, ig for 14 days starting from 12th day of immunization by flow cytometry (reference value: 87.7%)", "type": "functional", "settings": "time 14 day"}, "Mus musculus [10]": {"system": "Mus musculus", "assay": "Anti-inflammatory activity against MOG35-55-induced experimental autoimmune encephalomyelitis C57BL/6 mouse model assessed as methylation of CpG sites of […] gene promoter in brain at 600 mg/kg, ig for 14 days starting from 12th day of immunization by PCR analysis (reference value: 13.1 +/-8%)", "type": "functional", "settings": "time 14 day"}, "Mus musculus [11]": {"system": "Mus musculus", "assay": "Anti-inflammatory activity against MOG35-55-induced experimental autoimmune encephalomyelitis C57BL/6 mouse model assessed as methylation of CpG sites of IL17A gene promoter in brain at 600 mg/kg, ig for 14 days starting from 12th day of immunization by PCR analysis (reference value: 58 +/-6%)", "type": "functional", "settings": "time 14 day"}, "Mus musculus [12]": {"system": "Mus musculus", "assay": "Anti-inflammatory activity against MOG35-55-induced experimental autoimmune encephalomyelitis C57BL/6 mouse model assessed as fold change in STAT3 gene expression in brain at 0.3 mg/kg/day, ig for 14 days starting from 12th day of immunization by RT-qPCR analysis relative to control", "type": "functional", "settings": "time 14 day"}, "Mus musculus [13]": {"system": "Mus musculus", "assay": "Anti-inflammatory activity against MOG35-55-induced experimental autoimmune encephalomyelitis C57BL/6 mouse model assessed as fold change in MBP gene expression in brain at 0.3 mg/kg/day, ig for 14 days starting from 12th day of immunization by RT-qPCR analysis relative to control", "type": "functional", "settings": "time 14 day"}, "Mus musculus [14]": {"system": "Mus musculus", "assay": "Anti-inflammatory activity against MOG35-55-induced experimental autoimmune encephalomyelitis C57BL/6 mouse model assessed as fold change in CD4 gene expression in brain at 0.3 mg/kg/day, ig for 14 days starting from 12th day of immunization by RT-qPCR analysis relative to control", "type": "functional", "settings": "time 14 day"}, "Mus musculus [15]": {"system": "Mus musculus", "assay": "Anti-inflammatory activity against MOG35-55-induced experimental autoimmune encephalomyelitis C57BL/6 mouse model assessed as fold change in BCL2 gene expression in brain at 0.3 mg/kg/day, ig for 14 days starting from 12th day of immunization by RT-qPCR analysis relative to control", "type": "functional", "settings": "time 14 day"}, "Mus musculus [16]": {"system": "Mus musculus", "assay": "Anti-inflammatory activity against MOG35-55-induced experimental autoimmune encephalomyelitis C57BL/6 mouse model assessed as fold change in H2EB1 (HLA-DRB1) gene expression in brain at 0.3 mg/kg/day, ig for 14 days starting from 12th day of immunization by RT-qPCR analysis relative to control", "type": "functional", "settings": "time 14 day"}, "Mus musculus [17]": {"system": "Mus musculus", "assay": "Anti-inflammatory activity against MOG35-55-induced experimental autoimmune encephalomyelitis C57BL/6 mouse model assessed as fold change in HIF1A gene expression in brain at 0.15 mg/kg/day, ig for 14 days starting from 12th day of immunization by RT-qPCR analysis relative to control", "type": "functional", "settings": "time 14 day"}, "Mus musculus [18]": {"system": "Mus musculus", "assay": "Anti-inflammatory activity against MOG35-55-induced experimental autoimmune encephalomyelitis C57BL/6 mouse model assessed as fold change in MAG gene expression in brain at 0.15 mg/kg/day, ig for 14 days starting from 12th day of immunization by RT-qPCR analysis relative to control", "type": "functional", "settings": "time 14 day"}, "Mus musculus [19]": {"system": "Mus musculus", "assay": "Anti-inflammatory activity against MOG35-55-induced experimental autoimmune encephalomyelitis C57BL/6 mouse model assessed as fold change in PLP gene expression in brain at 0.15 mg/kg/day, ig for 14 days starting from 12th day of immunization by RT-qPCR analysis relative to control", "type": "functional", "settings": "time 14 day"}, "Mus musculus [20]": {"system": "Mus musculus", "assay": "Anti-inflammatory activity against MOG35-55-induced experimental autoimmune encephalomyelitis C57BL/6 mouse model assessed as fold change in TGFB1 gene expression in brain at 0.15 mg/kg/day, ig for 14 days starting from 12th day of immunization by RT-qPCR analysis relative to control", "type": "functional", "settings": "time 14 day"}, "Mus musculus [21]": {"system": "Mus musculus", "assay": "Anti-inflammatory activity against MOG35-55-induced experimental autoimmune encephalomyelitis C57BL/6 mouse model assessed as reduction in serum Th1 cytokine level by measuring reduction in IL-2 level at 0.3 mg/kg/day, ig for 14 days starting from 12th day of immunization by ELISA", "type": "functional, organism-based", "settings": "time 14.0 day"}, "Mus musculus [22]": {"system": "Mus musculus", "assay": "Anti-inflammatory activity against MOG35-55-induced experimental autoimmune encephalomyelitis C57BL/6 mouse model assessed as reduction in serum […] cytokine level by measuring reduction in IL-17 level at 0.3 mg/kg/day, ig for 14 days starting from 12th day of immunization by ELISA", "type": "functional, organism-based", "settings": "time 14.0 day"}, "Mus musculus [23]": {"system": "Mus musculus", "assay": "Anti-inflammatory activity against MOG35-55-induced experimental autoimmune encephalomyelitis C57BL/6 mouse model assessed as methylation of CpG sites of […] gene promoter in brain at […], ig for 14 days starting from 12th day of immunization by PCR analysis (reference value: 45 +/-7%)", "type": "functional", "settings": "time 14 day"}},
  "note": "Active and inactive are the calls of the source. The rule behind the calls is not given here.",
  "data": [
    {"smiles": "CCCCCCCCCCCCCCCCCCCCCCCCC(=O)O[C@H]1CC[C@]2(C)[C@H]3CC=C4[C@@H]5CC(C)(C)CC[C@]5(CO)CC[C@@]4(C)[C@]3(C)CC[C@H]2C1(C)C", "values": [
      {"measurement": "Stability", "setting": "[1]", "value": "Stable"},
      {"measurement": "fold change (FC)", "setting": "Mus musculus [2]", "value": 1.68},
      {"measurement": "fold change (FC)", "setting": "Mus musculus [3]", "value": 1.79},
      {"measurement": "fold change (FC)", "setting": "Mus musculus [4]", "value": 1.54},
      {"measurement": "fold change (FC)", "setting": "Mus musculus [5]", "value": 1.54},
      {"measurement": "fold change (FC)", "setting": "Mus musculus [6]", "value": 1.01},
      {"measurement": "fold change (FC)", "setting": "Mus musculus [7]", "value": -1.56},
      {"measurement": "fold change (FC)", "setting": "Mus musculus [8]", "value": 2},
      {"measurement": "Activity", "setting": "Mus musculus [9]", "value": 66.2, "unit": "%"},
      {"measurement": "Activity", "setting": "Mus musculus [10]", "value": 15.2, "unit": "%"},
      {"measurement": "Activity", "setting": "Mus musculus [11]", "value": 68.3, "unit": "%"}
    ]},
    {"smiles": "CCCCCCCCc1ccc(CCC(N)(CO)CO)cc1", "note": "[FINGOLIMOD]", "values": [
      {"measurement": "fold change (FC)", "setting": "Mus musculus [12]", "value": 1.87},
      {"measurement": "fold change (FC)", "setting": "Mus musculus [13]", "value": 2.28},
      {"measurement": "fold change (FC)", "setting": "Mus musculus [14]", "value": 2.12},
      {"measurement": "fold change (FC)", "setting": "Mus musculus [15]", "value": 2.12},
      {"measurement": "fold change (FC)", "setting": "Mus musculus [16]", "value": 13.9},
      {"measurement": "fold change (FC)", "setting": "Mus musculus [17]", "value": 2.49},
      {"measurement": "fold change (FC)", "setting": "Mus musculus [18]", "value": -1.85},
      {"measurement": "fold change (FC)", "setting": "Mus musculus [19]", "value": 1.54},
      {"measurement": "fold change (FC)", "setting": "Mus musculus [20]", "value": 1.86},
      {"measurement": "Activity", "setting": "Mus musculus [21]", "value": "Active"},
      {"measurement": "Activity", "setting": "Mus musculus [22]", "value": "Active"},
      {"measurement": "Activity", "setting": "Mus musculus [23]", "value": 44.9, "unit": "%"}
    ]}
  ]
}
